# In patent US5426104A, “Tricyclic carbapenem compounds, methods of preparation and methods of use” (Glaxo SpA, priority 1991, dated 1995):
# Key:
# [1] = system: E cloacae 3647; experiment: standard microtiter broth serial dilution test, E cloacae 3647; details: 18 h
# Procedure: (§2) For example the antibacterial activity of the compounds of the invention was determined using a standard microtiter broth serial dilution test. In this test the broth was incubated with approximately 10^5 colony forming units of the test organism and incubated at 35° for 18 hours in the presence of test compound.
# [2] = system: S faecalis 850E; experiment: standard microtiter broth serial dilution test, S faecalis 850E; details: 18 h
# Procedure: as §2
# [3] = system: P aeruginosa 1911E; experiment: standard microtiter broth serial dilution test, P aeruginosa 1911E; details: 18 h
# Procedure: as §2
# [4] = system: B fragilis 2017E; experiment: standard microtiter broth serial dilution test, B fragilis 2017E; details: 18 h
# Procedure: as §2
# [5] = system: E coli 1852E; details: 18 h
# Procedure: as §2
# [6] = system: S aureus 663E; experiment: standard microtiter broth serial dilution test, S aureus 663E; details: 18 h
# Procedure: as §2
# [7] = intravenous administration to the rat, adverse effects; assay type: in vivo; details: 500 mg/kg intravenously
# Excerpt: (§1) The compounds of the invention are essentially non-toxic at therapeutically useful doses.
# [8] = intravenous administration to the mouse, adverse effects; assay type: in vivo; details: 500 mg/kg intravenously
# Excerpt: as §1
Compound,MIC [1],MIC [2],MIC [3],MIC [4],MIC [5],MIC [6],adverse effects [7],adverse effects [8]
"CN=CN[C@H]1CCC[C@H]2C1=C(C(=O)O)N1C(=O)[C@H]([C@@H](C)O)[C@@H]21 [Example 2, (4 S,8S,9R,10S,12R)-4-[(3'-methyl)formamidino)-10-(1-hydroxyethyl)-11-oxo-1-azatricyclo[7.2.0.0^3.^8]undec-2-ene-2-carboxylic acid]",4 µg/mL,16 µg/mL,16 µg/mL,0.5 µg/mL,2 µg/mL,0.1 µg/mL,–,–
"C[C@@H](O)[C@H]1C(=O)N2C(C(=O)O)=C3[C@H](CCC[C@@H]3N(C)C=N)[C@H]12 [Example 1, (4S,8S,9R,10S,12R)-4-(N-methylformamidino)-10-(1-hydroxyethyl)-11-oxo-1-azatricyclo[7.2.0.0^3.^8]undec-2-ene-2-carboxylic acid]",1 µg/mL,1 µg/mL,8 µg/mL,0.2 µg/mL,0.5 µg/mL,0.1 µg/mL,no adverse effects were observed,no adverse effects were observed
